Reference: publication PMC10572522, “A Designed Analog of an Antimicrobial Peptide, Crabrolin, Exhibits Enhanced Anti-Proliferative and In Vivo Antimicrobial Activity” (International Journal of Molecular Sciences, 2023)
Residues, ends and D or L forms follow the SMILES beside them.

What was measured:
S. aureus (NCTC 10788) = assay: Antimicrobial susceptibility assay (MIC/MBC); format: cell-based, Staphylococcus aureus; conditions: for MIC: MHB, 37 °C, 20 h
Experimental: (§1) Six bacteria were tested in this experiment to detect the antimicrobial effects of crabrolin and its derivatives, including S. aureus (NCTC 10788), MRSA (NCTC 12493), E. coli (ATCC 8739), K. pneumoniae (ATCC 43816), E. faecium (NTCC-12697), and P. aeruginosa (ATCC 9027). The tested bacteria were cultured in Mueller Hinton broth medium (MHB) with norfloxacin (20 mg/L) as a positive control. All bacteria were incubated at 37 °C overnight and diluted to 5 × 10^5 CFU/mL before treating with the peptides. Stock solutions of 51,200 µM peptides were prepared in phosphate-buffered saline (PBS) and further diluted by a factor of two to 100 µM. Next, 1 µL of each peptide solution was mixed with 99 µL of bacterial subculture in a 96-well plate, and the plate was incubated at 37 °C for 20 h. After culturing, the absorbance of each well in the 96-well plate was analyzed at 550 nm using a Synergy HT plate reader (BioliseBioTek, Winooski, VT, USA). […] Starting with the MIC value, 10 µL of the solution from each well was dripped onto Mueller Hinton agar (MHA) plates. The plates were cultured at 37 °C for 20 h. After culturing, the lowest concentration with no colony growth was regarded as the MBC.

E. coli (ATCC 8739) = assay: Antimicrobial susceptibility assay (MIC/MBC); format: cell-based, Escherichia coli; conditions: for MIC: MHB, 37 °C, 20 h
Experimental: as §1

MRSA (NCTC 12493) = assay: Antimicrobial susceptibility assay (MIC/MBC); format: cell-based, methicillin-resistant Staphylococcus aureus; conditions: for MIC: MHB, 37 °C, 20 h
Experimental: as §1

[1] = tested on: K. pneumoniae (ATCC 43816); assay: Antimicrobial susceptibility assay (MIC/MBC); format: cell-based, Klebsiella pneumoniae; conditions: for MIC: MHB, 37 °C, 20 h
Experimental: as §1

E. faecium (NTCC 12697) = assay: Antimicrobial susceptibility assay (MIC/MBC); format: cell-based, Enterococcus faecium; conditions: for MIC: MHB, 37 °C, 20 h
Experimental: as §1

[2] = tested on: P. aeruginosa (ATCC 9027); assay: Antimicrobial susceptibility assay (MIC/MBC); format: cell-based, Pseudomonas aeruginosa; conditions: for MIC: MHB, 37 °C, 20 h
Experimental: as §1

[3] = tested on: MRSA (NCTC 12493) biofilm; format: cell-based, methicillin-resistant Staphylococcus aureus; conditions: for MBIC: biofilm inhibitory rate more than 90%; for MBEC: eradication rate greater than 99.9%
Experimental: (§2) To measure the antibiofilm activity of crabrolin and its derivatives, four drug-resistant biofilm-forming strains, MRSA (NCTC 12493), K. pneumoniae (ATCC 43816), E. faecium (NTCC-12697), and P. aeruginosa (ATCC 9027), were used in this assay. Tryptic soy broth (TSB) (for the Gram-positive bacteria) and Luria–Bertani broth (LB) (for the Gram-negative bacteria) were used to culture the bacteria.
(§3) The mass of the biofilm in this assay was detected by the crystal violet staining method. First, 100 μL of 5 × 10^5 CFU/mL bacteria was incubated with 1 μL of different peptide solutions (ranging from 51200 μM to 100 μM) for 24 h at 37 °C with 200 rpm shaking. After the biofilm formation, 100 μL of PBS was used to rinse the biofilm twice. Next, 100 µL of methanol was added to fix the biofilm, and the biofilm was then dried. Thereafter, 100 μL of 0.1% crystal violet was added and left to stain for 15 min, and then the excess crystal violet was further rinsed by PBS. After the plate had air-dried, 30% glacial acetic acid was added to each well of the plate, and the plate was shaken for 15 min before the optical density (OD) value was measured at 595 nm using a Synergy HT plate reader. The MBIC value refers to the minimum concentration at which the biofilm inhibitory rate was more than 90%.
(§4) Different from measuring the MBIC value, to determine the MBEC value, 100 μL of the bacteria was first added to 96-well plates. After the biofilm was formed, the biofilm was rinsed with PBS twice to remove the planktonic cells, and then different concentrations of the drugs were added to the biofilm (the same as the MBIC assay). The mixture was incubated at 37 °C with shaking at 200 rpm. After 24 h of incubation, the mass of the biofilm was measured in the same way as the MBIC value, and the minimum concentration at which the eradication rate was greater than 99.9% was considered to be the MBEC value.

[4] = tested on: K. pneumoniae (ATCC 43816) biofilm; format: cell-based, Klebsiella pneumoniae; conditions: for MBIC: biofilm inhibitory rate more than 90%; for MBEC: eradication rate greater than 99.9%
Experimental: as §2, §3, §4

[5] = tested on: E. faecium (NTCC12697) biofilm; format: cell-based, Enterococcus faecium; conditions: for MBIC: biofilm inhibitory rate more than 90%; for MBEC: eradication rate greater than 99.9%
Experimental: as §2, §3, §4

[6] = tested on: P. aeruginosa (ATCC 9027) biofilm; format: cell-based, Pseudomonas aeruginosa; conditions: for MBIC: biofilm inhibitory rate more than 90%; for MBEC: eradication rate greater than 99.9%
Experimental: as §2, §3, §4

[7] = tested on: human breast cancer cell line MCF-7; assay: Anti-proliferative assay (MTT); format: cell-based; conditions: MCF-7, MTT, 24 h
Experimental: (§5) The human non-small-cell lung cancer line, H838, the human prostate carcinoma cell line, PC-3, the human glioblastoma astrocytoma, U251MG, the human breast cancer cell line, MCF-7, the human colorectal carcinoma cell line, HCT116, and the human keratinocyte cell line, HaCaT, were used to detect the anti-proliferative effects of the crabrolin and its derivatives in vitro. A total of 8000 cells were seeded in each well of a 96-well plate. After the cells had adhered to the wall, the cells were starved for 4 h. After the starvation, the cells were incubated with different concentrations of the drugs, ranging from 100 µM to 1 nM, for 24 h, with 0.1% Triton X-100 used as a positive control. Next, 10 µL of MTT (3-(4,5-dimethylthiazol-2-yl)-2,5-diphenyltetrazolium bromide) solution (5 mg/mL) was added to each well of the 96-well plate. After 2 h of incubation, 100 μL of DMSO-superseded medium was added to each well to dissolve the formazan crystals. Finally, the absorbance was detected using a Synergy HT plate reader at 570 nm.

[8] = tested on: human colorectal carcinoma cell line HCT-116; assay: Anti-proliferative assay (MTT); format: cell-based; conditions: HCT-116, MTT, 24 h
Experimental: as §5

[9] = tested on: human glioblastoma astrocytoma U251MG; assay: Anti-proliferative assay (MTT); format: cell-based; conditions: 24 h
Experimental: as §5

[10] = tested on: human keratinocyte cell line HaCaT; assay: Anti-proliferative assay (MTT); format: cell-based; conditions: HaCaT (normal keratinocytes), 24 h
Experimental: as §5

[11] = tested on: human non-small-cell lung cancer line H838; assay: Anti-proliferative assay (MTT); format: cell-based; conditions: 24 h
Experimental: as §5

[12] = tested on: human prostate carcinoma cell line PC-3; assay: Anti-proliferative assay (MTT); format: cell-based; conditions: PC3, MTT, 24 h
Experimental: as §5

Hemolysis assay = format: cell-based, horse; conditions: horse, erythrocytes (2% suspension); at the peptide's maximum MIC; relative to Triton X-100; read-out: Hemolysis under the Maximum MIC
Experimental: (§6) According to the procedures described in detail in a previous study, the debris and impurities of the erythrocytes were washed with PBS in advance to yield 2% of the erythrocyte suspension, and the drug concentration was diluted from 1024 µM to 2 µM with PBS [53]. The same amounts of the drug and the erythrocyte suspension were mixed and cultured at 37 °C for 2 h; 0.1% Triton X-100 (Sigma-Aldrich, St. Louis, MO, USA) was prepared as a positive control, and PBS was prepared as a negative control. After the incubation, the supernatant was transferred to a 96-well plate and then detected using a Synergy HT plate reader at 570 nm.

horse erythrocytes = assay: Hemolysis assay; format: cell-based; conditions: erythrocytes, 37 °C, 2 h
Experimental: as §6

SMILES | MBC (S. aureus (NCTC 10788)) [µM] | MIC (S. aureus (NCTC 10788)) [µM] | MBC (E. coli (ATCC 8739)) [µM] | MIC (E. coli (ATCC 8739)) [µM] | MBC (MRSA (NCTC 12493)) [µM] | MIC (MRSA (NCTC 12493)) [µM] | MBC [1] [µM] | MIC [1] [µM] | MBC (E. faecium (NTCC 12697)) [µM] | MIC (E. faecium (NTCC 12697)) [µM] | MBC [2] [µM] | MIC [2] [µM] | MBIC [3] [µM] | MBEC [3] [µM] | MBIC [4] [µM] | MBEC [4] [µM] | MBIC [5] [µM] | MBEC [5] [µM] | MBIC [6] [µM] | MBEC [6] [µM] | other results
CC[C@H](C)[C@H](NC(=O)[C@H](CCCNC(=N)N)NC(=O)[C@@H]1CCCN1C(=O)[C@H](CC(C)C)NC(=O)[C@@H](N)CCCNC(=N)N)C(=O)N[C@@H](CC(C)C)C(=O)N[C@@H](CCCNC(=N)N)C(=O)N[C@@H](CCCCN)C(=O)N[C@H](C(=O)N[C@H](C(=O)N[C@@H](CCCNC(=N)N)C(=O)N[C@@H](C)C(=O)N[C@@H](CC(C)C)C(N)=O)C(C)C)[C@@H](C)CC [Crabrolin-FR, RLPRILRKIVRAL-NH2] (H-RLPRILRKIVRAL-NH2) | 2 | 2 | 4 | 2 | 4 | 4 | 16 | 8 | 16 | 8 | 16 | 4 | 8 | 256 | 8 | 512 | 32 | > 512 | 8 | > 512 | IC50 [7]: 33.9 µM; IC50 [8]: 30.3 µM; IC50 [9]: 62.2 µM; IC50 [10]: 30.4 µM; IC50 [11]: 31.5 µM; IC50 [12]: 15.9 µM; hemolysis at 2 h (Hemolysis assay): 5.67%; HC10 (10% hemolytic concentration) (horse erythrocytes): 18.082 µM
CC[C@H](C)[C@H](NC(=O)[C@H](CCCNC(=N)N)NC(=O)[C@@H]1CCCN1C(=O)[C@H](CC(C)C)NC(=O)[C@@H](N)CCCNC(=N)N)C(=O)N[C@@H](CC(C)C)C(=O)N[C@@H](CCCNC(=N)N)C(=O)N[C@@H](CCCCN)C(=O)N[C@H](C(=O)N[C@H](C(=O)N[C@@H](CCCNC(=N)N)C(=O)N[C@@H](CCCNC(=N)N)C(=O)N[C@@H](CC(C)C)C(N)=O)C(C)C)[C@@H](C)CC [Crabrolin-AR, RLPRILRKIVRRL-NH2] (H-RLPRILRKIVRRL-NH2) | 8 | 4 | 4 | 2 | 8 | 4 | 16 | 8 | 32 | 16 | 16 | 4 | 8 | 512 | 8 | > 512 | 64 | > 512 | 16 | > 512 | IC50 [7]: 32.5 µM; IC50 [8]: 29.9 µM; IC50 [9]: 52 µM; IC50 [10]: 34.9 µM; IC50 [11]: 41.3 µM; IC50 [12]: 28.8 µM; hemolysis at 2 h (Hemolysis assay): 6.63%; HC10 (10% hemolytic concentration) (horse erythrocytes): 59.049 µM
